Source: US8658801B2, “Pesticides containing a bicyclic bisamide structure” (Syngenta Crop Protection, LLC, priority 2006, dated 2014)

Legend:
[1] = system: Heliothis virescens (Tobacco Budworm); experiment: Example B2: activity against Heliothis virescens, ovo-larvicide, feeding/contact, curative; type: in vivo; settings: 96 h, 4 days incubation, eggs 0-24 h old
Procedure: Activity Against Heliothis virescens (Tobacco Budworm)
(Ovo-Larvicide, Feeding/Contact Activity, Curative)
Eggs (0-24 h old) are placed in 24-well microtiter plate on artificial diet and treated with test solutions by pipetting. After an incubation period of 4 days, samples are checked for egg mortality, larval mortality, and growth regulation.

[2] = system: Thrips tabaci (Onion Thrips); experiment: Example B7: activity against Thrips tabaci, mixed population, feeding/residual contact, preventive; settings: 144 h, read-out: activity
[3] = system: Myzus persicae (Green Peach Aphid); experiment: Example B5: activity against Myzus persicae, mixed population, feeding/residual contact, preventive (sunflower leaf discs); settings: foliar, 144 h, read-out: activity
[4] = system: Aphis craccivora (Pea Aphid); experiment: Example B11: activity against Aphis craccivora, mixed population, systemic/feeding; type: in vivo; settings: 144 h, 6 days, roots in test solution (systemic)
Description: Activity Against Aphis craccivora (Pea Aphid)
(Mixed Population, Systemic/Feeding)
6 days later, samples are checked for mortality.

[5] = system: Spodoptera littoralis (Egyptian Cotton Leafworm); experiment: Example B1: activity against Spodoptera littoralis, larvicide, feeding/residual contact, preventive (cotton leaf discs); type: in vivo; settings: foliar, 72 h, 3 days after treatment, L1 larvae
Description: Activity Against Spodoptera littoralis (Egyptian Cotton Leafworm)
(§1) (Larvicide, Feeding/Residual Contact Activity, Preventive)
The samples are checked for mortality, repellent effect, feeding behaviour, and growth regulation 3 days after treatment. In this test, compounds listed in Table P above show good activity. In particular compounds P.1, P.2, P.3, P.4, P.5, P.6, P.7, P.9, P.10, P.11, P.12, P.13, P.15, P.16, P.17, P.18, P.19, P.20, P.21, P.22, P.23, P.24, P.25, P.26, P.27, P.28, P.29, P.30, P.31, P.32, P.33, P.34, P.35, P.36, P.37, P.38, P.39, P.40, P.41, P.42, P.43, P.44, P.45, P.46, P.47, P.48, P.49, P.50, P.51, P.52, P.53, P.54, P.55, P.56, P.57, P.58, P.59, P.60, P.61, P.63, P.64, P.67, P.68 and P.70 show an activity of over 80% at a concentration of 400 ppm.

[6] = system: Myzus persicae (Green Peach Aphid); experiment: Example B6: activity against Myzus persicae, mixed population, systemic/feeding, curative (pea seedling roots); settings: 144 h, read-out: activity
[7] = system: Plutella xylostella (Diamond Back Moth); experiment: Example B3: Plutella xylostella, larvicide, feeding/residual contact, preventive (artificial diet MTP); type: in vivo; settings: 120 h, 5 days incubation, L2 larvae
Procedure: Plutella xylostella (Diamond Back Moth)
as §1
24-well microtiter plate (MTP) with artificial diet is treated with test solutions by pipetting. After drying, the MTP's are infested with larvae (L2)(10-15 per well). After an incubation period of 5 days, samples are checked for larval mortality, antifeedant and growth regulation. In this test, compounds listed in Table P above show good activity. In particular compounds P.1, P.2, P.3, P.4, P.5, P.6, P.7, P.9, P.10, P.11, P.12, P.13, P.15, P.16, P.17, P.18, P.19, P.20, P.21, P.22, P.23, P.25, P.26, P.27, P.28, P.29, P.30, P.31, P.32, P.33, P.34, P.35, P.36, P.37, P.38, P.39, P.40, P.41, P.42, P.43, P.44, P.46, P.47, P.48, P.49, P.50, P.51, P.52, P.53, P.54, P.55, P.56, P.57, P.58, P.59, P.60, P.61, P.63, P.64, P.67, P.68, P.69 P.70, P.72, P.74, P.77, P78 and P.79 show an activity of over 80% at a concentration of 400 ppm.

[8] = system: Diabrotica balteata (Corn Root Worm); experiment: Example B4: Diabrotica balteata, larvicide, feeding/residual contact, preventive; type: in vivo; settings: 120 h, 5 days incubation, L2 larvae
Procedure: Diabrotica balteata (Corn Root Worm)
as §1
After drying, the MTP's are infested with larvae (L2)(6-10 per well). After an incubation period of 5 days, samples are checked for larval mortality, antifeedant and growth regulation. In this test, compounds listed in Table P above show good activity. In particular compounds P.1, P.2, P.5, P.6, P.10, P.11, P.12, P.13, P.15, P.16, P.17, P.18, P.19, P.24, P.25, P.27, P.28, P.29, P.30, P.31, P.33, P.34, P.35, P.37, P.38, P.39, P.42, P.43, P.44, P.45, P.46, P.47, P.48, P.49, P.50, P.52, P.53, P.65, P.67, P.68, P.69, P.70, P.71, P.72, P.75, P.78, and P.79 show an activity of over 80% at a concentration of 400 ppm.

[9] = system: Frankliniella occidentalis (Western Flower Thrips); experiment: Example B9: activity against Frankliniella occidentalis (bean leaf discs or bean plants); type: in vivo; settings: foliar, 6 days (leaf discs) or 14 days (plants) after infestation
Procedure: Activity Against Frankliniella occidentalis (Western Flower Thrips)
Bean leaf discs on agar in petri dishes or bean plants in a spray chamber are treated with diluted test solutions. After drying leaf discs are cut and placed in plastic cups on the surface of an agar layer and infested with mixed population. 6 days (leaf discs) or 14 days (plants) after the infestation, samples are checked for reduction of treated population and compared to the non treated population.

[10] = system: Cydia pomonella (Codling Moth); experiment: Example B8: activity against Cydia pomonella (paraffin-coated diet cubes); type: in vivo; settings: 336 h, 14 days incubation at 26° C.
Procedure: Activity Against Cydia pomonella (Codling Moth)
Standard Cydia diet cubes (1.5 cm width) are pierced with a tooth-pick and are immersed in liquid paraffin (ca. 80° C.). After the paraffin coat has hardened, an aqueous emulsion containing 400 ppm of active ingredient is applied using a De Vilbis sprayer (25 ml, 1 bar). After the spray coating has dried, the cubes are put into plastic containers which are then populated with two freshly hatched Cydia pomonella (1st instar). The containers are then closed with a plastic cap. After 14 days incubation at 26° C. and 40-60% relative humidity, the survival rate of the caterpillars as well as their growth regulation is determined. In this test, compounds listed in Table P above show good activity. In particular compounds P.10, P.11, P.12, P.18, P.19, P.20, P.29, P.30, P.31, P.32, P.33, P.34, P.35, P.37, P.38, P.39, P.42, and P.43 show an activity of over 80% at a concentration of 400 ppm.

Measured: pest or weed control at 400 ppm

CSCC(C)(C)NC(=O)c1c(NC(=O)c2cc(C(F)(F)F)nn2-c2ncccc2Cl)c(Cl)cc2cn[nH]c12 [P.13]
not listed: [10]
> 80%: all other assays above

CC(C)(CS(C)(=O)=O)NC(=O)c1c(NC(=O)c2cc(C(F)(F)F)nn2-c2ncccc2Cl)c(Cl)cc2cn[nH]c12 [P.15]
not listed: [2] | [4] | [10]
> 80%: all other assays above

CNC(=O)c1c(NC(=O)c2cc(C(F)(F)F)nn2-c2ncccc2Cl)c(Br)cc2cn[nH]c12 [P.17]
not listed: [2] | [4] | [10]
> 80%: all other assays above

Cc1ccc2c(C(=O)NC(C)C)c(NC(=O)c3cc(C(F)(F)F)nn3-c3ncccc3Cl)c(C)cc2n1 [P.20]
> 80%: [1] | [10] | [5] | [7]

CNC(=O)c1c(NC(=O)c2cc(C(F)(F)F)nn2-c2ncccc2Cl)c(C)cc2nc(C)ccc12 [P.22]
> 80%: [1] | [5] | [7] | [9]

O=C(NC1CC12CC2)c1c(NC(=O)c2cc(C(F)(F)F)nn2-c2ncccc2Cl)c(Cl)cc2cn[nH]c12 (stereo not shown) [P.31]
> 80%: [1] | [10] | [3] | [5] | [7] | [8]

CC1(NC(=O)c2c(NC(=O)c3cc(C(F)(F)F)nn3-c3ncccc3Cl)c(Cl)cc3cn[nH]c23)CSC1 [P.32]
not listed: [4] | [8] | [9]
> 80%: all other assays above

O=C(NC1(C2CC2)CC1)c1c(NC(=O)c2cc(Cl)nn2-c2ncccc2Cl)c(Cl)cc2cn[nH]c12 [P.45, 5-chloro-6-{[5-chloro-2-(3-chloro-pyridin-2-yl)-2H-pyrazole-3-carbonyl]-amino}-1H-indazole-7-carboxylic acid bicyclopropyl-1-ylamide]
not listed: [1] | [7] | [10]
> 80%: all other assays above

O=C(NC1(C2CC2)CC1)c1c(NC(=O)c2cc(OCC(F)(F)F)nn2-c2ncccc2Cl)c(Cl)cc2cn[nH]c12 [P.48]
not listed: [4] | [10]
> 80%: all other assays above

Cc1cc2cn[nH]c2c(C(=O)NC(C)C)c1NC(=O)c1cc(OCC(F)(F)F)nn1-c1ncccc1Cl [P.52, 6-{[2-(3-chloro-pyridin-2-yl)-5-(2,2,2-trifluoro-ethoxy)-2H-pyrazole-3-carbonyl]-amino}-5-methyl-1H-indazole-7-carboxylic acid isopropylamide]
not listed: [10]
> 80%: all other assays above

COc1cc(C(=O)Nc2c(C#N)cc3cn[nH]c3c2C(=O)NC2(C3CC3)CC2)n(-c2ncccc2Cl)n1 [P.53]
not listed: [4] | [9] | [10]
> 80%: all other assays above

COc1cc(C(=O)Nc2c(Br)cc3cn[nH]c3c2C(=O)NC(C)(C)CS(C)(=O)=O)n(-c2ncccc2Cl)n1 [P.54]
not listed: [8] | [10]
> 80%: all other assays above

Cc1cc2cn[nH]c2c(C(=O)NC2(C3CC3)CC2)c1NC(=O)c1cc(OCC(F)(F)F)nn1-c1ncccc1Cl [P.70, 6-{[2-(3-chloro-pyridin-2-yl)-5-(2,2,2-trifluoro-ethoxy)-2H-pyrazole-3-carbonyl]-amino}-5-methyl-1H-indazole-7-carboxylic acid bicyclopropyl-1-ylamide]
not listed: [4] | [10]
> 80%: all other assays above
